Patent US11090307B2, “Treating male senescence” (National Institute of Biological Sciences, Beijing, priority 2017, dated 2021)

Experiments:
[1] = tested on: phospho-MLKL in the testes; assay: TSZ-induced necroptosis in testes of mice fed RIPA-56-containing chow; format: in vivo
Experimental: We therefore evaluated the effects of a newly-identified, highly-potent, and highly-specific RIP1 kinase inhibitor from our laboratory (henceforth ‘RIPA-56’)(Ren et al., 2017) by incorporating it into mouse food at 150 mg/kg and 300 mg/kg doses. We first tested the effect of RIPA-56 on necroptosis in testes by injecting TSZ into testes of 2-month old mice after feeding the mice with increasing concentrations of RIPA-56-containing chow for one week.

[2] = tested on: 13-month old male wild type mice; assay: Long-term feeding of 13-month old male wild type mice with RIPA-56 chow for two months; format: in vivo
Experimental: We subsequently chose the 300 mg/kg dose to continuously feed 13-month old male wild type mice for two months to study the long-term effects of blocking necroptosis on testes. […] Additionally, the testosterone level of RIPA-56-treated mice remained high, while that of control mice decreased. […] Finally, the fertility rates of the RIPA-56-treated mice were much higher than those of control mice with 19 out of 25 mice on the RIPA-56 diet were fertile while only 6 out of 23 mice on normal diet produced progeny.

CCC(C)(C)C(=O)N(O)Cc1ccccc1 [RIPA-56]
block of necroptosis in testes ([1]; 300 mg/kg dose in chow, one week, TSZ into testes): completely block necroptosis | appearance of TSZ-induced phospho-MLKL in the testes ([1]; 2-month old mice, chow with increasing concentrations (150 mg/kg and 300 mg/kg) for one week, then TSZ into testes): blocked the appearance of TSZ-induced phospho-MLKL in the testes in a dose-dependent manner | empty seminiferous tubules ([2]; 300 mg/kg in food, two months): hardly any seminiferous vesicles were empty | fertility rate (fertile mice) ([2]; 300 mg/kg in food, two months): 19 out of 25 | gross male aging metrics (body weight, fat deposition, libido, fertility, muscle mass, prostate hyperplasia) ([2]; 300 mg/kg in food, two months): more youthful gross male aging metrics | mass of seminal vesicles ([2]; 300 mg/kg in food, two months): around 1,000 milligrams | testosterone level ([2]; 300 mg/kg in food, two months): remained high | body weight ([2]; 300 mg/kg in food, two months, vs control chow diet): weighed less than mice fed with control chow diet | age-associated weight gain ([2]; necroptosis blocked pharmaceutically): much less age-associated wright gain
